According to patent publication US20250270190A1, “KIT INHIBITORS” (BLUEPRINT MEDICINES CORPORATION, priority 2022, published 2025):

Target: T1, c-kit autophosphorylation (Phospho c-Kit Tyr721) in HMC 1.1 (exon 11/13) cells, V654A (Homo sapiens, UniProt P10721, V560G/V654A)
T1 construct: endogenous in cells; host or cells: HMC 1.1 (exon 11/13) cells
Experiment: pKIT Meso Scale Discovery (MSD) assay, inhibition of autophosphorylation of KIT, HMC1.1_V654A
Type: cell-based
Conditions: Table 1, cell line not named for Table 1, b1056 names pKIT HMC1.1_V654A, read-out: Code (IC50 for inhibition of autophosphorylation of KIT, pKIT MSD assay)
Summary of the method: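 HMC1.1 cells were serum-starved for 4 h in serum-free, iron-free, phenol red-free IMDM, then treated with compound in dose-response for 90 min at 37 °C. Staurosporine and DMSO served as controls. Lysates were analysed by MSD electrochemiluminescence immunoassay for phospho-c-Kit Tyr721, and % inhibition of autophosphorylation was derived.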

T1 sequence (P10721 26-976 V560G/V654A): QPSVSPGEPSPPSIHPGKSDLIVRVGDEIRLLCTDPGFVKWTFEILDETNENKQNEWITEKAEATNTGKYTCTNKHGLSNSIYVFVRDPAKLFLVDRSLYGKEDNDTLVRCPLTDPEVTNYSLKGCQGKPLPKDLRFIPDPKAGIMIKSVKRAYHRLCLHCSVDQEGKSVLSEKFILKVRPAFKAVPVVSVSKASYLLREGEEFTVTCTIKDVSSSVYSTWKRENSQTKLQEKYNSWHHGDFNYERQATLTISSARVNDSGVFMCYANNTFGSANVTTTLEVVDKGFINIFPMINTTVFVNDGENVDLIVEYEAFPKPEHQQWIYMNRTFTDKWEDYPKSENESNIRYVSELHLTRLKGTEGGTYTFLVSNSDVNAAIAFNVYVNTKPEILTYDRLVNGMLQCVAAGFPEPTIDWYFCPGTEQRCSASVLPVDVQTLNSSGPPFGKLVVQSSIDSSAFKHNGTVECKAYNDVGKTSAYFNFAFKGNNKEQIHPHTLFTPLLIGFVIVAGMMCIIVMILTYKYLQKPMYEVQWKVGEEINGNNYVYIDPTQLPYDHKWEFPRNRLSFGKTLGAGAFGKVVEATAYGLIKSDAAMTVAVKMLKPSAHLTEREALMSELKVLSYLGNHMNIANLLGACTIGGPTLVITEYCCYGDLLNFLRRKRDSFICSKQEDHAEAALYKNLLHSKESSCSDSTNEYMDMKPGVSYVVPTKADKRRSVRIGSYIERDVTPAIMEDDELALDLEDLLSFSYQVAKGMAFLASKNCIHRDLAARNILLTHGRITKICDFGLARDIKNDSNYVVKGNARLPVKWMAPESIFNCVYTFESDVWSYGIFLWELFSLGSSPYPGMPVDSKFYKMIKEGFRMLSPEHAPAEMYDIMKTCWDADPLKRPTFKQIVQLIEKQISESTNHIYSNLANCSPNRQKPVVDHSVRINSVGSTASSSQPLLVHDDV

Compound	IC50 [nM]
COCCn1cc(-c2cnc(Nc3cc(N)nc(C(F)F)n3)cc2OC)cn1 [Compound 84, 2-(difluoromethyl)-N4-(4-methoxy-5-(1-(2-methoxyethyl)-1H-pyrazol-4-yl)pyridin-2-yl)pyrimidine-4,6-diamine]	< 10
COc1cc(Nc2cc(N)nc(C(F)F)n2)ncc1-c1cnn(CC(C)O)c1 (stereo not drawn) [Compound 85, 1-(4-(6-((6-amino-2-(difluoromethyl)pyrimidin-4-yl)amino)-4-methoxypyridin-3-yl)-1H-pyrazol-1-yl)propan-2-ol]	10 to 40
CC(C)Nc1cc(Nc2cc(N)nc(C(F)F)n2)ncc1C(=O)NCC1CC1 [Compound 86, 6-((6-amino-2-(difluoromethyl)pyrimidin-4-yl)amino)-N-(cyclopropylmethyl)-4-(isopropylamino)nicotinamide]	10 to 40
CNC(=O)c1cnc(Nc2cc(N)nc(C(F)F)n2)cc1NC1(C)CCOC1 (stereo not drawn) [Compound 89, 6-((6-amino-2-(difluoromethyl)pyrimidin-4-yl)amino)-N-methyl-4-((3-methyltetrahydrofuran-3-yl)amino)nicotinamide]	< 10
C[C@@H](CF)Nc1cc(Nc2cc(N)nc(C(F)F)n2)ncc1C(=O)NC1CC1 [Compound 90, (S)-6-((6-amino-2-(difluoromethyl)pyrimidin-4-yl)amino)-N-cyclopropyl-4-((1-fluoropropan-2-yl)amino)nicotinamide]	< 10
C[C@H](CF)Nc1cc(Nc2cc(N)nc(C(F)F)n2)ncc1C(=O)NC1CC1 [Compound 91, (R)-6-((6-amino-2-(difluoromethyl)pyrimidin-4-yl)amino)-N-cyclopropyl-4-((1-fluoropropan-2-yl)amino)nicotinamide]	< 10
CNC(=O)c1cnc(Nc2cc(N)nc(C(F)F)n2)cc1NCc1ccccc1 [Compound 92, 6-((6-amino-2-(difluoromethyl)pyrimidin-4-yl)amino)-4-(benzylamino)-N-methylnicotinamide]	10 to 40
CNc1cc(Nc2cc(N)nc(C(F)F)n2)ncc1C(=O)NCc1ccccn1 [Compound 93, 6-((6-amino-2-(difluoromethyl)pyrimidin-4-yl)amino)-4-(methylamino)-N-(pyridin-2-ylmethyl)nicotinamide]	10 to 40
COc1cc(Nc2cc(N)nc(C(F)F)n2)ncc1-c1cnn(C(F)(F)F)c1 [Compound 94, 2-(difluoromethyl)-N4-(4-methoxy-5-(1-(trifluoromethyl)-1H-pyrazol-4-yl)pyridin-2-yl)pyrimidine-4,6-diamine]	10 to 40
Cn1cc(-c2cnc(Nc3cc(N)nc(C(F)F)n3)cc2OC(F)(F)F)cn1 [Compound 95, 2-(difluoromethyl)-N4-(5-(1-methyl-1H-pyrazol-4-yl)-4-(trifluoromethoxy)pyridin-2-yl)pyrimidine-4,6-diamine]	< 10
CCNc1cc(Nc2cc(N)nc(CF)n2)ncc1C(=O)NC12CC(CO)(C1)C2 [Compound 96, 6-((6-amino-2-(fluoromethyl)pyrimidin-4-yl)amino)-4-(ethylamino)-N-(3-(hydroxymethyl)bicyclo[1.1.1]pentan-1-yl)nicotinamide]	10 to 40
COc1cc(Nc2cc(N)nc(C(F)F)n2)ncc1-c1cnn(C2CCNC2)c1 (stereo not drawn) [Compound 97, 2-(difluoromethyl)-N4-(4-methoxy-5-(1-(pyrrolidin-3-yl)-1H-pyrazol-4-yl)pyridin-2-yl)pyrimidine-4,6-diamine]	10 to 40
CCOc1cc(Nc2cc(N)nc(C(F)F)n2)ncc1-c1cnn(C2CNC2)c1 [Compound 98, N4-(5-(1-(azetidin-3-yl)-1H-pyrazol-4-yl)-4-ethoxypyridin-2-yl)-2-(difluoromethyl)pyrimidine-4,6-diamine]	10 to 40
COc1cc(Nc2cc(N)nc(C(F)F)n2)ncc1-c1cnn(C2CN(C)C2)c1 [Compound 103, 2-(difluoromethyl)-N4-(4-methoxy-5-(1-(1-methylazetidin-3-yl)-1H-pyrazol-4-yl)pyridin-2-yl)pyrimidine-4,6-diamine]	< 10
Cn1cc(-c2cnc(Nc3cc(N)nc(C(F)F)n3)cc2OCC2COC2)cn1 [Compound 104, 2-(difluoromethyl)-N4-(5-(1-methyl-1H-pyrazol-4-yl)-4-(oxetan-3-ylmethoxy)pyridin-2-yl)pyrimidine-4,6-diamine]	< 10
Cn1cc(-c2cnc(Nc3cc(N)nc(C(F)F)n3)cc2OCC2CCO2)cn1 (stereo not drawn) [Compound 105, 2-(difluoromethyl)-N4-(5-(1-methyl-1H-pyrazol-4-yl)-4-(oxetan-2-ylmethoxy)pyridin-2-yl)pyrimidine-4,6-diamine]	10 to 40
Cn1cc(-c2cnc(Nc3cc(N)nc(C(F)F)n3)cc2OC2CCOC2)cn1 (stereo not drawn) [Compound 106, 2-(difluoromethyl)-N4-(5-(1-methyl-1H-pyrazol-4-yl)-4-((tetrahydrofuran-3-yl)oxy)pyridin-2-yl)pyrimidine-4,6-diamine]	< 10
Cn1cc(-c2cnc(Nc3cc(N)nc(C(F)F)n3)cc2O[C@H]2C[C@@H](O)C2)cn1 [Compound 107, (1s,3s)-3-((2-((6-amino-2-(difluoromethyl)pyrimidin-4-yl)amino)-5-(1-methyl-1H-pyrazol-4-yl)pyridin-4-yl)oxy)cyclobutan-1-ol]	10 to 40
Nc1cc(Nc2cc(OC3CC3)c(-c3cnn(CCO)c3)cn2)nc(C(F)F)n1 [Compound 108, 2-(4-(6-((6-amino-2-(difluoromethyl)pyrimidin-4-yl)amino)-4-cyclopropoxypyridin-3-yl)-1H-pyrazol-1-yl)ethan-1-ol]	< 10
COc1cc(Nc2cc(N)nc(C(F)F)n2)ncc1-c1cnn(CC2CCO2)c1 (stereo not drawn) [Compound 111, 2-(difluoromethyl)-N4-(4-methoxy-5-(1-(oxetan-2-ylmethyl)-1H-pyrazol-4-yl)pyridin-2-yl)pyrimidine-4,6-diamine]	< 10
COc1cc(Nc2cc(N)nc(C(F)F)n2)ncc1-c1cnn(C2CC(O)C2)c1 (stereo not drawn) [Compound 112, 3-(4-(6-((6-amino-2-(difluoromethyl)pyrimidin-4-yl)amino)-4-methoxypyridin-3-yl)-1H-pyrazol-1-yl)cyclobutan-1-ol]	10 to 40

The remaining lines, values ahead:

IC50 [nM]	Compound
< 10	CCNc1cc(Nc2cc(N)nc(C(F)F)n2)ncc1C(=O)NCc1cocn1 [Compound 113, 6-((6-amino-2-(difluoromethyl)pyrimidin-4-yl)amino)-4-(ethylamino)-N-(oxazol-4-ylmethyl)nicotinamide]
10 to 40	CCNc1cc(Nc2cc(N)nc(C(F)F)n2)ncc1C(=O)NCc1ncco1 [Compound 114, 6-((6-amino-2-(difluoromethyl)pyrimidin-4-yl)amino)-4-(ethylamino)-N-(oxazol-2-ylmethyl)nicotinamide]
10 to 40	COc1cc(Nc2cc(N)nc(C(F)F)n2)ncc1-c1cnn(CCN(C)C)c1 [Compound 115, 2-(difluoromethyl)-N4-(5-(1-(2-(dimethylamino)ethyl)-1H-pyrazol-4-yl)-4-methoxypyridin-2-yl)pyrimidine-4,6-diamine]
< 10	CCOc1cc(Nc2cc(N)nc(C(F)F)n2)ncc1-c1cnn(CCNC)c1 [Compound 119, 2-(difluoromethyl)-N4-(4-ethoxy-5-(1-(2-(methylamino)ethyl)-1H-pyrazol-4-yl)pyridin-2-yl)pyrimidine-4,6-diamine]
10 to 40	CNc1cc(Nc2cc(N)nc(C(F)F)n2)ncc1C(=O)NC12CC(CO)(C1)C2 [Compound 121, 6-((6-amino-2-(difluoromethyl)pyrimidin-4-yl)amino)-N-(3-(hydroxymethyl)bicyclo[1.1.1]pentan-1-yl)-4-(methylamino)nicotinamide]
< 10	COc1cc(Nc2cc(N)nc(C(F)F)n2)ncc1-c1cnn(C(C)(C)CO)c1 [Compound 122, 2-(4-(6-((6-amino-2-(difluoromethyl)pyrimidin-4-yl)amino)-4-methoxypyridin-3-yl)-1H-pyrazol-1-yl)-2-methylpropan-1-ol]
10 to 40	Nc1cc(Nc2cc(NC3CC3)c(C(=O)N[C@H]3C[C@@H](O)C3)cn2)nc(C(F)F)n1 [Compound 123, 6-((6-amino-2-(difluoromethyl)pyrimidin-4-yl)amino)-4-(cyclopropylamino)-N-((1s,3s)-3-hydroxycyclobutyl)nicotinamide]
< 10	Nc1cc(Nc2cc(OC(F)F)c(-c3cnn(C4CC4)c3)cn2)nc(C(F)F)n1 [Compound 127, N4-(5-(1-cyclopropyl-1H-pyrazol-4-yl)-4-(difluoromethoxy)pyridin-2-yl)-2-(difluoromethyl)pyrimidine-4,6-diamine]
< 10	CC(Oc1cc(Nc2cc(N)nc(C(F)F)n2)ncc1-c1cnn(C)c1)C(F)F (stereo not drawn) [Compound 128, 2-(difluoromethyl)-N4-(4-((1,1-difluoropropan-2-yl)oxy)-5-(1-methyl-1H-pyrazol-4-yl)pyridin-2-yl)pyrimidine-4,6-diamine]
< 10	CC(C)Oc1cc(Nc2cc(N)nc([C@H](C)F)n2)ncc1-c1cnn(C2COC2)c1 [Compound 129, (S)-2-(1-fluoroethyl)-N4-(4-isopropoxy-5-(1-(oxetan-3-yl)-1H-pyrazol-4-yl)pyridin-2-yl)pyrimidine-4,6-diamine]
10 to 40	Nc1cc(Nc2cc(OC3CC3)c(-c3cnn(C4CNC4)c3)cn2)nc(C(F)F)n1 [Compound 130, N4-(5-(1-(azetidin-3-yl)-1H-pyrazol-4-yl)-4-cyclopropoxypyridin-2-yl)-2-(difluoromethyl)pyrimidine-4,6-diamine]
< 10	CCNc1cc(Nc2cc(N)nc(C(F)F)n2)ncc1C(=O)NCc1ccccn1 [Compound 131, 6-((6-amino-2-(difluoromethyl)pyrimidin-4-yl)amino)-4-(ethylamino)-N-(pyridin-2-ylmethyl)nicotinamide]
